Laboratory results from patent US5494895A, “Scorpion peptide margatoxin with immunosuppressant activity” (Merck & Co., Inc., priority 1993, dated 1996).
pIC50: −log10 of the molar value. Peptide text beside a SMILES is read from it.

Key:
Type in all cases: cell-based
[1] = molecular target: T1, lymphocyte Kv 1.3 current (Homo sapiens, UniProt P22001); assay: Whole cell patch clamp of human peripheral T-lymphocytes
T1 construct: endogenous in cells; host or cells: purified human peripheral blood T lymphocytes
Description: Ionic currents were recorded from human peripheral T-lymphocytes using the whole cell patch clamp technique described in Cahalan, M. and Neher, E., Meth. Enzymol. 207, 3, 1992. Purified human T cells were obtained as described in Leonard et al., Proc. Natl. Acad. Sci. U.S.A., 89, 10094, 1992, and recordings were carried out in a bath solution consisting of ^125 mM NaCl, 2.5 mM KCl, 1.0 mM CaCl2, 2.0 mM MgCl2, 10 mM HEPES (potassium salt), 10 mM glucose, 5 mM Na-pyruvate, and 0.05% BSA. The pH was adjusted to 7.2, and experiments were performed at room temperature (19°-22° C.). The intracellular (pipette) solution contained 140 mM K-glutamate, 1 mM MgCl2, 10 mM HEPES (potassium salt), and 0.1 mM EGTA. The pH was adjusted to 7.2. Patch pipettes were fabricated from DAGAN (Minneapolis, Minn.) LG-16 glass and had resistances of 2 to 8M.OMEGA.. Currents were measured using a DAGAN model 3900 patch clamp. Delivery of command voltages, data acquisition, and post-acquisition analysis were aided by a microcomputer running the Pclamp program suite (AXON INSTRUMENTS, Foster City, Calif.).
Methods for oocyte isolation and micro-injection were previously described in Goldin, Meth. Cell Biol, 36, 487, 1991, and Swanson and Folander, Meth. Enzymol., 207, 310, 1992. Currents expressed in oocytes were measured using a DAGAN model CA-1 two-electrode voltage clamp. Delivery of command voltages, data acquisition and post-acquisition analysis were aided by a microcomputer running the Pclamp program suite. The oocyte bathing solution consisted of 96 mM NaCl, 2.5 mM KCl, 1 mM MgCl2, 1.8 mM CaCl2, 10 mM HEPES, and 0.05% BSA. The pH was 7.2. All recordings were obtained at room temperature (19°-22° C.). The intracellular microelectrodes were fabricated from DAGAN LE-16 glass in a two-stage pull to a final resistance of 0.6 to 2M.OMEGA. and filled with 3M KCl. For both lymphocyte and oocyte experiments, peptides were diluted into the extracellular solution from 20 μM aqueous stock containing 100 mM NaCl. The presence of 0.05% BSA in the bath solution inhibited non-specific loss of dilute peptide toxins in the perfusion tubing.
Both native and recombinant MgTX were tested for their ability to block voltage gated K^+ channels. […] There was insufficient native toxin to carry out selectivity studies, so those were conducted using the recombinant material exclusively. […] The apparent IC50 for inhibition of the lymphocyte Kv 1.3 current is between 20 to 100 pM. […] As reported previously, MgTX has no effect on three different ChTX-sensitive, Ca^2+ -activated K^+ channels of lymphocytes, even at 100 nM (Leonard et al., Proc. Natl. Acad. Sci. U.S.A. 89, 10094, 1992).

Shaker-H4 = molecular target: T2, Shaker-H4 (Drosophila melanogaster, UniProt P08510); assay: Two-electrode voltage clamp of Xenopus oocytes expressing Shaker-H4
T2 construct: expressed in transfected cells; host or cells: Xenopus oocytes injected with RNA transcribed in vitro from the cDNA clone
Description: (§1) Ionic currents were also recorded from Xenopus oocytes that had been injected with RNA transcribed in vitro from one or another of the following K^+ channel cDNA clones. Kv 1 (rat Kv 1.5), rat or human Kv 3 (rat Kv 1.3; human Kv 1.3), Kv 4 (rat Kv 3.1 ), rat ISK, Kv 2 (rat Kv 1.6) or Drosophila Shaker-H4. The names of the clones are listed as originally published, with the appropriate parenthetical designation according to the unified gene nomenclature proposed by Chandy. Shaker-H4 is a splice variant from the original Drosophila Shaker K^+ channel gene. Kv 1.3 is the ChTX-sensitive delayed rectifier current found in rat and human T lymphocytes (data from rat and human clones were indistinguishable and were combined) and it is a member of the Shaker family. Kv 1.5 is a channel cloned from rat (Swanson et al., Neuron, 4, 929, 1990) and is another member of the Shaker family. The Kv 1.5 transcript has been detected in pancreatic β cells as described in Philipson, et al., Proc. Natl. Acad. Sci. U.S.A. 88, 53, 1991. […] The ISK transcript has been detected in lymphocytes (Attali et al., J. Biol. Chem,. 267, 8650, 1992), but no evidence of the IKs current has been found in those cells.
(§2) Methods for oocyte isolation and micro-injection were previously described in Goldin, Meth. […] Currents expressed in oocytes were measured using a DAGAN model CA-1 two-electrode voltage clamp. […]

Kv 3.1 = molecular target: T3, Kv 3.1 (Rattus norvegicus, UniProt P25122); assay: Two-electrode voltage clamp of Xenopus oocytes expressing Kv 4 (Kv 3.1); settings: 200 nM MgTX
T3 construct: expressed in transfected cells; host or cells: Xenopus oocytes injected with RNA transcribed in vitro from the cDNA clone
T3 sequence (P25122 1-585): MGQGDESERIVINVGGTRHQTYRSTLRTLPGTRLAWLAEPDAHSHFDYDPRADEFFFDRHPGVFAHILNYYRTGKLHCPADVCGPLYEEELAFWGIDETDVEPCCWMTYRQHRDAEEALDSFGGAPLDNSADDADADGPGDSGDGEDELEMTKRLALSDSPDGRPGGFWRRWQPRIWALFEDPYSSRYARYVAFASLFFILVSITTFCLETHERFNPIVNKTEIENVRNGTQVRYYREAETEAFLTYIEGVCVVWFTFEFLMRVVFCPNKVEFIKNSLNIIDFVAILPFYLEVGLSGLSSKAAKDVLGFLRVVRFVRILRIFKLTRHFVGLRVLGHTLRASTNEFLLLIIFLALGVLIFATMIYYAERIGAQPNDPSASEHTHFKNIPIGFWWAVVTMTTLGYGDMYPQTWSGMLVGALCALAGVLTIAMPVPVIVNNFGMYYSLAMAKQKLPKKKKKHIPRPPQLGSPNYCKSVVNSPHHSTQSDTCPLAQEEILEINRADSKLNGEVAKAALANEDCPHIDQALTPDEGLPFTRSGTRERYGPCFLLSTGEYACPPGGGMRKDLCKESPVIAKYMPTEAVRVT
Description: as §1, §2

T1 sequence (P22001 whole entry): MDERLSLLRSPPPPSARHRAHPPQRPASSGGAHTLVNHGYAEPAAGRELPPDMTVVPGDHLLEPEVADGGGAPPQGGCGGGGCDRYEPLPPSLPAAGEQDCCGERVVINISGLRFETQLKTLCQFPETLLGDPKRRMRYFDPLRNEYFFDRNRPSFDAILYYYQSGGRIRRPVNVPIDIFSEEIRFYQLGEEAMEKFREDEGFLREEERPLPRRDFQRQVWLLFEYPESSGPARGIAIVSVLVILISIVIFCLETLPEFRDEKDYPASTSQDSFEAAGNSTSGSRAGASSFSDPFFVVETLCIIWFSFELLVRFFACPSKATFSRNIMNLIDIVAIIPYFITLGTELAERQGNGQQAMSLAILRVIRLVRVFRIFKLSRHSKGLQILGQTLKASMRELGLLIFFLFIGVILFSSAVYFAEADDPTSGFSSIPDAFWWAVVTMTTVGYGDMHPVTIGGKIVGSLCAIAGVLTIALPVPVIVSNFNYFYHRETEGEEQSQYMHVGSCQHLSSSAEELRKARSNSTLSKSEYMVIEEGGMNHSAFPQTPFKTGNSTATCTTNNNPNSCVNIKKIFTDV
T2 sequence (P08510 whole entry): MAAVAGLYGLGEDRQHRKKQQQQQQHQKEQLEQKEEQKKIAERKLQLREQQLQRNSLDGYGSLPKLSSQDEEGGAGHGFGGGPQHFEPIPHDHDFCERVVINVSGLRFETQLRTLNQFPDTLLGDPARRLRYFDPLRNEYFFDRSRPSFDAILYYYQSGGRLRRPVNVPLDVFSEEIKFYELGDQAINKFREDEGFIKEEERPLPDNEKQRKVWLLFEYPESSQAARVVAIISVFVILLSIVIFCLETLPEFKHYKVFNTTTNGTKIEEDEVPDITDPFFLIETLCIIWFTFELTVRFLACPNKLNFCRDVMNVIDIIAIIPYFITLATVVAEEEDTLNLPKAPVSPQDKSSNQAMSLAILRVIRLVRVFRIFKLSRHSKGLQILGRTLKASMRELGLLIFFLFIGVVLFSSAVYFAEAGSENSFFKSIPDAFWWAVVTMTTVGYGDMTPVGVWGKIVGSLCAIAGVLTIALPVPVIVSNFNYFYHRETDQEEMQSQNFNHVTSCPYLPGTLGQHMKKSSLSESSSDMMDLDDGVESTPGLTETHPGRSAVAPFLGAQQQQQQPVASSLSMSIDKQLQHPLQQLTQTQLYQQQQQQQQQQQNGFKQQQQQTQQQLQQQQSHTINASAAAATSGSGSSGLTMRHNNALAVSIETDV

CC[C@H](C)[C@H](NC(=O)[C@@H](N)[C@@H](C)O)C(=O)N[C@H](C(=O)N[C@@H](CC(N)=O)C(=O)N[C@H](C(=O)N[C@@H](CCCCN)C(=O)N[C@H]1CSSC[C@@H]2NC(=O)[C@H](CCCCN)NC(=O)[C@H](C)NC(=O)CNC(=O)[C@H](C)NC(=O)[C@H](CO)NC(=O)[C@H](CCC(N)=O)NC(=O)CNC(=O)[C@H](Cc3ccccc3)NC(=O)[C@H](CCC(N)=O)NC(=O)[C@H](C)NC(=O)[C@H](CCCCN)NC(=O)[C@@H]3CSSC[C@@H](C(=O)N[C@@H](Cc4ccc(O)cc4)C(=O)N4CCC[C@H]4C(=O)N[C@@H](Cc4c[nH]cn4)C(=O)O)NC(=O)[C@H](CCCCN)NC(=O)[C@H](CSSC[C@H](NC(=O)[C@H](CCC(N)=O)NC(=O)[C@H](CCCCN)NC(=O)[C@@H]4CCCN4C(=O)[C@H](CO)NC(=O)[C@H]([C@@H](C)O)NC1=O)C(=O)N[C@@H](CC(C)C)C(=O)N1CCC[C@H]1C(=O)N1CCC[C@H]1C(=O)N3)NC(=O)[C@H](CCCCN)NC(=O)CNC(=O)[C@H](CC(N)=O)NC(=O)[C@H](CCSC)NC2=O)C(C)C)[C@@H](C)CC [MgTX, Margatoxin] (HELM PEPTIDE1{T.I.I.N.V.K.C.T.S.P.K.Q.C.L.P.P.C.K.A.Q.F.G.Q.S.A.G.A.K.C.M.N.G.K.C.K.C.Y.P.H}$PEPTIDE1,PEPTIDE1,7:R3-29:R3|PEPTIDE1,PEPTIDE1,13:R3-34:R3|PEPTIDE1,PEPTIDE1,17:R3-36:R3$$$V2.0; N-terminus and C-terminus assumed; bridges inferred)
t1/2 of recovery from block following removal from the bath [1]: > 20 min | inhibition of the voltage activated K+ channel from human lymphocytes ([1]; at 1 nM): Complete inhibition | potency relative to ChTX on the same preparation ([1]; lymphocyte Kv 1.3 current): five to ten-fold more potent | pIC50 ([1]; read-out: apparent IC50 for inhibition of the lymphocyte Kv 1.3 current): 10.00 to 10.70 | pIC50 (Shaker-H4): 7.00 | sensitivity of cloned channel Kv 3.1 to block (Kv 3.1): completely insensitive
